Measurements: patent US7205162B1, “Artificial antibodies, method of producing the same and use thereof” (priority 1995, dated 2007)

Assays:
[1] = Molecularly Imprinted Sorbent Assay (MIA), competitive binding of 3H-diazepam to anti-diazepam polymer; conditions: molar ratio of diazepam to ligand giving 50% inhibition of 3H-diazepam binding to polymer; ligands added to drug free serum
[2] = test system: natural antibodies (Ab's) against diazepam; conditions: data from ref 24; cited from earlier work
[3] = Molecularly Imprinted Sorbent Assay (MIA), competitive binding of 3H-theophylline to anti-theophylline polymer; conditions: for Cross-reaction (%) ArtAb, Theophylline antibodies: molar ratio of theophylline to ligand giving 50% inhibition of 3H-theophylline binding to polymer, ligands added to drug free serum
[4] = test system: natural antibodies (Ab's) against theophylline; conditions: data from ref 22; cited from earlier work
[5] = Scatchard plot analysis with radio-labelled ligand, anti-theophylline polymer; format: binding; conditions: LIGAND programme
Excerpt: (§1) The equilibrium dissociation constants (KD) for binding of the drugs to the corresponding polymers were estimated by Scatchard plot analysis using radio-labelled ligands.

[6] = Scatchard plot analysis with radio-labelled ligand, anti-diazepam polymer
Excerpt: as §1

Structure (SMILES)	Cross-reaction (%) ArtAb, Diazepam antibodies [1] [%]	Cross-reaction (%) Ab**, Diazepam antibodies [2] [%]	Cross-reaction (%) ArtAb, Theophylline antibodies [3] [%]	Cross-reaction (%) Ab*, Theophylline antibodies [4] [%]	further results
CNC1=Nc2ccc(Cl)cc2C(c2ccccc2)=[N+]([O-])C1 [Chlordiazepoxid]	2	<1			
Cn1c(=O)c2[nH]c(=O)[nH]c2n(C)c1=O [1,3-Dimethyluric acid]			<1	<1	
Cc1nnc2n1-c1ccc(Cl)cc1C(c1ccccc1)=NC2 [Alprazolam]	40	44			
Cn1c(=O)c2[nH]cnc2n(C)c1=O [Theophylline, 1,3-dimethylxanthine]			100	100	Kd ([5]; read-out: KD, high affinity binding sites): 346 nM; Kd ([5]; read-out: KD, low affinity binding sites): 65500 nM
O=c1[nH]c(=O)c2[nH]cnc2[nH]1 [Xanthine]			<1	<1	
Cn1c(=O)c2[nH]cnc2n(C)c1=O [[^3H]-theophylline]					time to binding equilibrium ([3]; 12.5 mg polymer, acetonitrile-acetic acid (99/1), room temperature): 8 h; share of the binding occurred within 3 h ([3]; within 3 h, acetonitrile-acetic acid (99/1), room temperature): 80%; share of the binding occurred within 5 h ([3]; within 5 h, acetonitrile-acetic acid (99/1), room temperature): 90%
O=C1CN=C(c2ccccc2)c2cc(Cl)ccc2N1 [Demethyldiazepam, Desmethyldiazepam]	27	32			
O=C1Nc2ccc(Cl)cc2C(c2ccccc2Cl)=NC1O (stereo not shown) [Lorazepam]	4	1			
O=c1[nH]cnc2nc[nH]c12 [Hypoxanthine]			<1	<1	
CN1C(=O)CN=C(c2ccccc2)c2cc(Cl)ccc21 [Diazepam]	100	100			Kd ([6]; read-out: KD, high affinity binding sites, LIGAND programme): 37.6 nM; Kd ([6]; read-out: KD, low affinity binding sites, LIGAND programme): 73.6 nM
Cn1c(=O)[nH]c2[nH]c(=O)[nH]c2c1=O [1-Methyluric acid]			<1	<1	
Cn1c(=O)c2c(ncn2CCO)n(C)c1=O [7-(β-Hydroxyethyl)-1,3-di-methylxanthine]			<1	<1	
O=c1[nH]c(=O)c2[nH]c(=O)[nH]c2[nH]1 [Uric acid]			<1	<1	
Cn1c(=O)[nH]c(=O)c2[nH]cnc21 [3-Methylxantin, 3-methylxanthine]			7	2	cross-reactivity in MIA for theophylline (in words) [3]: some cross-reactivity
O=C1CN=C(c2ccccc2Cl)c2cc([N+](=O)[O-])ccc2N1 [Clonazepam]	9	5			
Cn1cnc2c1c(=O)[nH]c(=O)n2C [Theobromine, 3,7-dimetylxanthine]				<1	
